Reference: patent US12655150B2 (Cedilla Therapeutics, Inc., priority 2021, dated 2026)

System: NCI-H226
Assay: 72H TEAD Proliferation Assay (Cell Titer Glo 2.0)
Format: cell-based
Details: Homo sapiens, NCI-H226, 72 h, CTG 2.0, cell line not given (NCI-H226 responsive, NCI-H28 non-responsive)
Method in brief: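 NF2-deficient NCI-H226 mesothelioma cells, TEAD-dependent, treated 72 h; NF2-wild-type NCI-H28 serves as the TEAD-independent counter-screen for off-target cytotoxicity. Viable cells quantified by CellTiter-Glo 2.0 luminescence; background and time-zero signal subtracted, GI50 from nonlinear dose-response fit.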

GI50 [nM] | SMILES
≤ 1000 | COCc1cc(-c2ccc(C(F)(F)F)cc2)nc2cc(C(=O)O)ccc12 [I-270, 4-(methoxymethyl)-2-(4-(trifluoromethyl)phenyl)quinoline-7-carboxylic acid]
> 10000 | O=C(O)c1ccc2c(c1)nc(OCc1cccc(C(F)(F)F)c1)c1cccn12 [I-131, 4-((3-(Trifluoromethyl)benzyl)oxy)pyrrolo[1,2-a]quinoxaline-7-carboxylic acid]
≤ 1000 | Cc1cc(-c2ccc(C(F)(F)F)cc2)nc2cc(C(=O)N[C@@H](C)c3cccc(O)c3)ccc12 [I-269, (S)—N-(1-(3-hydroxyphenyl)ethyl)-4-methyl-2-(4-(trifluoromethyl)phenyl)quinoline-7-carboxamide]
≤ 1000 | C=CC(=O)Nc1ccc2c(c1)nc(-c1ccc(C(C)(C)C)cc1)c1cccn12 [I-119, N-(4-(4-(tert-butyl)phenyl)pyrrolo[1,2-a]quinoxalin-7-yl)acrylamide]
≤ 1000 | C=CC(=O)NCc1nc2ncccn2c1-c1ccc(C(F)(F)F)cc1 [I-410, N-((3-(4-(trifluoromethyl)phenyl)imidazo[1,2-a]pyrimidin-2-yl)methyl)acrylamide]
1000 to 5000 | C[C@@H](CO)NC(=O)c1ccc2c(c1)nc(-c1ccc(C(C)(C)C)cc1)c1cccn12 [I-190, (S)-4-(4-(tert-butyl)phenyl)-N-(1-hydroxypropan-2-yl)pyrrolo[1,2-a]quinoxaline-7-carboxamide]
≤ 1000 | C=CC(=O)Nc1ccc2cc(C)c(-c3ccc(C(C)(C)C)cc3)nc2c1 [I-98, N-(2-(4-(tert-butyl)phenyl)-3-methylquinolin-7-yl)acrylamide]
≤ 1000 | C=CC(=O)NCc1cc2cccc(F)c2c(-c2ccc(C(F)(F)F)cc2)n1 [I-289, N-((8-fluoro-1-(4-(trifluoromethyl)phenyl)isoquinolin-3-yl)methyl)acrylamide]
> 10000 | O=C(O)c1ccc2c(c1)nc(C1CCOCC1)c1nccn12 [I-69, 4-(Tetrahydro-2H-pyran-4-yl)imidazo[1,2-a]quinoxaline-7-carboxylic acid]
≤ 1000 | C=CC(=O)NCc1cn2cccc2c(-c2ccc(C(F)(F)F)cc2)n1 [I-319, N-((1-(4-(trifluoromethyl)phenyl)pyrrolo[1,2-a]pyrazin-3-yl)methyl)acrylamide]
≤ 1000 | FC(F)(F)c1ccc(-c2nc(C3CC(Br)=NO3)cn3ccnc23)cc1 (stereo not drawn) [I-176, 3-bromo-5-(8-(4-(trifluoromethyl)phenyl)imidazo[1,2-a]pyrazin-6-yl)-4,5-dihydroisoxazole]
≤ 1000 | O=C(O)c1ccc2c(OC(F)F)cc(-c3ccc(C(F)(F)F)cc3)nc2c1 [I-331, 4-(Difluoromethoxy)-2-(4-(trifluoromethyl)phenyl)quinoline-7-carboxylic acid]
≤ 1000 | C=CC(=O)NCc1cn2cccc2c(-c2ccc(C(C)(C)C)cc2)n1 [I-111, N-((1-(4-(tert-butyl)phenyl)pyrrolo[1,2-a]pyrazin-3-yl)methyl)acrylamide]
> 10000 | O=C(O)c1ccc2c(c1)nc(-c1ccc(F)cc1)c1cccn12 [I-43, 4-(4-Fluorophenyl)pyrrolo[1,2-a]quinoxaline-7-carboxylic acid]
≤ 1000 | Cc1cc(-c2ccc(C(F)(F)F)cc2)nc2cc(C(=O)NCCO)ccc12 [I-259, N-(2-hydroxyethyl)-4-methyl-2-(4-(trifluoromethyl)phenyl)quinoline-7-carboxamide]
≤ 1000 | C[C@H](CO)NC(=O)c1ccc2c(OC(F)F)cc(-c3ccc(C(F)(F)F)cc3)nc2c1 [I-330, (R)-4-(difluoromethoxy)-N-(1-hydroxypropan-2-yl)-2-(4-(trifluoromethyl)phenyl)quinoline-7-carboxamide]
> 10000 | O=C(O)c1ccc2c(c1)nc(-c1ccc(Cl)cc1)c1cccn12 [I-48, 4-(4-Chlorophenyl)pyrrolo[1,2-a]quinoxaline-7-carboxylic acid]

GI50 [nM] | SMILES
1000 to 5000 | CC(C)(C)c1ccc(-c2nc3cc(C(=O)O)ccc3n3ncnc23)cc1 [I-287, 4-(4-(tert-butyl)phenyl)-[1,2,4]triazolo[1,5-a]quinoxaline-7-carboxylic acid]
1000 to 5000 | Cc1cc(-c2ccc(C(F)(F)F)cc2)nc2cc(C(=O)N[C@@H](C)COC(F)(F)F)ccc12 [I-264, (S)-4-methyl-N-(1-(trifluoromethoxy)propan-2-yl)-2-(4-(trifluoromethyl)phenyl)quinoline-7-carboxamide]
1000 to 5000 | COc1cc(-c2ccc(C(F)(F)F)cc2)nc2cc(C(=O)N[C@@H](CO)CC(C)C)ccc12 [I-370, (R)—N-(1-hydroxy-4-methylpentan-2-yl)-4-methoxy-2-(4-(trifluoromethyl)phenyl)quinoline-7-carboxamide]
1000 to 5000 | CC(C)C12CC(Nc3nc4cc(C(=O)O)ccc4n4cccc34)(C1)C2 [I-22, 4-((3-Isopropylbicyclo[1.1.1]pentan-1-yl)amino)pyrrolo[1,2-a]quinoxaline-7-carboxylic acid]
> 10000 | C=CC(=O)Nc1cccc2nc(-c3ccc(C(C)(C)C)cc3)c(C)cc12 [I-99, N-(2-(4-(tert-butyl)phenyl)-3-methylquinolin-5-yl)acrylamide]
≤ 1000 | O=C(O)c1ccc2c(c1)nc(N1CCC3(CCCC3)CC1)c1cccn12 [I-8, 4-(8-Azaspiro[4.5]decan-8-yl)pyrrolo[1,2-a]quinoxaline-7-carboxylic acid]
> 10000 | CC(C)(C)c1ccc(CCn2ccc3cc(C(=O)O)ccc32)cc1 [Compound I-161]
> 10000 | O=C(O)c1ccc2c(c1)nc(N1CCC3(CCCC3)CC1)c1nccn12 [I-57, 4-(8-Azaspiro[4.5]decan-8-yl)imidazo[1,2-a]quinoxaline-7-carboxylic acid]
1000 to 5000 | COCc1cc(-c2ccc(C(F)(F)F)cc2)nc2cc(C(=O)N[C@H](C)CO)ccc12 [I-271, (R)—N-(1-hydroxypropan-2-yl)-4-(methoxymethyl)-2-(4-(trifluoromethyl)phenyl)quinoline-7-carboxamide]
1000 to 5000 | COc1cc(-c2ccc(C(F)(F)F)cn2)nc2cc(C(=O)O)ccc12 [I-361, 4-methoxy-2-(5-(trifluoromethyl)pyridin-2-yl)quinoline-7-carboxylic acid]
> 10000 | CC(C)(C)c1ccc(-c2nc3cc(-c4nnn[nH]4)ccc3n3ccnc23)cc1 [I-76, 4-(4-(tert-Butyl)phenyl)-7-(1H-tetrazol-5-yl)imidazo[1,2-a]quinoxaline]
> 10000 | O=C(O)c1ccc2c(c1)nc(N1CCC(F)(F)CC1)c1cccn12 [I-39, 4-(4,4-Difluoropiperidin-1-yl) pyrrolo[1,2-a]quinoxaline-7-carboxylic acid]
≤ 1000 | COc1cccc([C@H](C)NC(=O)c2ccc3c(C)cc(-c4ccc(C(F)(F)F)cc4)nc3c2)c1 [I-268, (S)—N-(1-(3-methoxyphenyl)ethyl)-4-methyl-2-(4-(trifluoromethyl)phenyl)quinoline-7-carboxamide]
1000 to 5000 | CC(C)(C)c1ccc(-c2nc3cc(C(N)=O)ccc3n3ccnc23)cc1 [I-73, 4-(4-(tert-Butyl)phenyl)imidazo[1,2-a]quinoxaline-7-carboxamide]
1000 to 5000 | CC(C)(C)c1ccc(-c2nc3cc(C(=O)O)ccc3n3nccc23)cc1 [I-117, 4-(4-(tert-Butyl)phenyl)pyrazolo[1,5-a]quinoxaline-7-carboxylic acid]
1000 to 5000 | O=C(O)c1ccc2ccc(-c3ccc(C(F)(F)F)cc3)nc2c1 [I-403, 2-(4-(trifluoromethyl)phenyl)quinoline-7-carboxylic acid]
